We go through four molecules from patent publication US9062039B2, “Therapeutic compounds” (CHANGZHOU LE SUN PHARMACEUTICALS LIMITED, priority 2012, dated 2015).

Usually GI50 stands for the concentration at which growth is held to half of that of the control. The bioavailability is the share of a dose that reaches the circulation, judged against a reference dose that is usually intravenous.

Molecules are shown by their SMILES. Where two headings read alike, the source gives them in different places.

For data set [1], the system named is MCF-7 (human breast carcinoma). The data set is described as follows: 48h MTT proliferation assay. Type of data set: cell-based.
Data set [2] deals with HCT-116 (human colon carcinoma). Briefly: 48h MTT proliferation assay. Type of data set: cell-based.
The subject of a further data set is Patient CLL B-cells. Briefly: Ex vivo CLL assay (Annexin V apoptosis, flow cytometry). Type of data set: cell-based, human. Conditions: up to 48 h.
The test system of a further data set is Normal B-cells. The description is as above. The format is cell-based, human. Conditions: up to 48 h.
Another data set has as its system Normal T-cells. The data set is described as above. The format is cell-based, human. Conditions: up to 48 h.
A short description of data set [3]: Determination of pharmacokinetics in mice. Type of data set: in vivo. The settings on record: male, CD1, mouse, plasma; Mice PK, 10 mg/kg, po; read-out: Oral bioavailability F %. As to the method:
For PK measurements male adult CD1 mice weighing 25-30 g (Charles River) are split into weight matched groups of 3 per group. The mice were held at the scruff of the neck and orally dosed via a metal gavage directly into the stomach. Immediately after dosing mice are returned to their cage, plastic box cage with sawdust bedding, and food and water available. Blood samples were collected from the mouse under anaesthesia by cardiac puncture using a 1 mL syringe and 25 gauge needle at time zero and at intervals up to 8 h. Harvested blood was centrifuged at 7000×G for 2 minutes, and the plasma aspirated and frozen at −20° C. until analysis. Quantitative compound level analysis was carried out using LC-MS/MS methods. Pharmacokinetic data derived using PK Solutions 2.0, non-compartmental analysis. Oral bioavailability (% F) was calculated by taking the ratio of dose-normalised AUC values from oral versus parenteral dosing.

The subject of data set [4] is primary CLL cells co-cultured with CD40L-expressing mouse embryonic fibroblasts. Conditions: fludarabine alone; Walsby et al. 2012; cited from earlier work.
Data set [5] has the same test system. Briefly: Synergy between CDKI-73 and fludarabine under CD40L co-culture. The format is cell-based, human. The settings on record: CDKI-73 combined with fludarabine, other two additive.
Description: Lymphocytes were separated using Ficoll-Hypaque (Sigma, Poole, UK) and autologous plasma was collected for use in some experiments. Separated lymphocytes were maintained in RPMI medium supplemented with 10% fetal bovine serum (FBS), penicillin (50 U/ml), streptomycin (50 μg/ml) and recombinant human IL-4 (R and D Systems, Abingdon, UK) (5 ng/ml). […] The significance of differences between experimental conditions was determined using the Student's t test for paired and unpaired observations. To assess the interaction between agents, the median effect method was employed using CalcuSyn software (CalcuSyn; Biosoft International, Ferguson, Mo.). The combination index was calculated for the two-drug combination using an experimentally determined fixed concentration ratio.
In data set [6] the test system is MCL1, BCL2, XIAP, CCND1 and CCND2 expression in CLL cells. Briefly: Gene expression profiling (Affymetrix microarray). Type of data set: cell-based, human. From the text:
The detailed protocol for sample preparation and microarray processing is available from Affymetrix (http://www.affymetrix.com). […] After second strand synthesis, the resulting cDNA was subjected to an in vitro transcription reaction using a Bioarray kit (Enzo Diagnostics, New York, N.Y., USA) to generate biotinylated cRNA. This was subsequently fragmented and hybridized to the Affymetrix U133 2.0 Gene Chips. After hybridization, each microarray was washed, stained and scanned with an argon-ion confocal laser, with excitation at 488 nm and detection at 570 nm. The significance of differences between experimental conditions was determined using the Student's t test for paired and unpaired observations. To assess the interaction between agents, the median effect method was employed using CalcuSyn software (CalcuSyn; Biosoft International, Ferguson, Mo.). The combination index was calculated for the two-drug combination using an experimentally determined fixed concentration ratio. […] Affymetrix gene expression data were processed using Partek Genomics Suite (Partek Inc. Saint Louis, USA).

Data set [7] deals with MCL1 transcription in CLL cells. Briefly: Real-time reverse transcription-PCR of MCL1. Conditions: 4 h, with and without CD40L co-culture. The format is cell-based, human. As to the method:
CDKI-73, 100:1) for 4 h using the method described by Walsby et al. (Oncotarget 3, 525-34 (2012)).

[8] abbreviates: MCF7, read-out: 48h-MTT cytotoxicity GI50 MCF-7, Table 1, 48 h.
The mark [9] stands for this setting: HCT-116, read-out: 48h-MTT cytotoxicity GI50 HCT-116, Table 1, 48 h.
Setting [10] is: MCF7, read-out: 48h-MTT Anti-proliferative activity GI50 MCF-7 (human breast carcinoma), Table 2, 48 h.
Where [11] appears, read: HCT-116, read-out: 48h-MTT Anti-proliferative activity GI50 HCT-116 (human colon carcinoma), Table 2, 48 h.

Regarding `CNc1nc(C)c(-c2nc(Nc3cccc(S(N)(=O)=O)c3)ncc2Cl)s1` [Example 3, 3-(5-chloro-4-(4-methyl-2-(methylamino)thiazol-5-yl)pyrimidin-2-ylamino)benzene sulfonamide], the values for the GI50 in data set [1] (setting [8]) and in [2] (setting [9]) were 60 nM and 30 nM, respectively.

`CNc1nc(C)c(-c2nc(Nc3cccc(S(N)(=O)=O)c3)ncc2C#N)s1` [Comparator, 3-(5-cyano-4-(4-methyl-2-(methylamino)thiazol-5-yl)pyrimidin-2-ylamino)benzenesulfonamide, reference compound]: the GI50 was 480 nM in data set [1] (setting [10]), 480 nM in data set [1] (setting [8]), 430 nM in data set [2] (setting [11]) and 440 nM in data set [2] (setting [9]). Also, in the data set on Patient CLL B-cells, the “Ex vivo efficacy, LD50 Patient CLL B-cells” value was 0.43 µM. In the data set on Normal B-cells, the “Ex vivo efficacy, LD50 Normal B-cells” value amounted to 89 µM. Also, the “Ex vivo efficacy, LD50 Normal T-cells” value in the data set with Normal T-cells turned out to be 350 µM. Moreover, the bioavailability in data set [3] came out at 7%.

On to `Nc1nc(F)nc2c1ncn2[C@@H]1O[C@H](CO)[C@@H](O)[C@@H]1O` [fludarabine], for which, in data set [4], the “cytotoxic effects of fludarabine under CD40L co-culture” value is reported as “completely abrogates”.

Take `CNc1nc(C)c(-c2nc(Nc3cccc(S(N)(=O)=O)c3)ncc2F)s1` [Example 1, 3-(5-Fluoro-4-(4-methyl-2-(methylamino)thiazol-5-yl)pyrimidin-2-ylamino)benzene sulfonamide]: the concentration for 50% growth inhibition (GI50) in data set [1] (setting [10]) amounted to 50 nM; in [1] (setting [8]), 30 nM; in data set [2] (setting [11]) it was 60 nM; in data set [2] (setting [9]) it was 30 nM. For the same molecule, in the data set on Patient CLL B-cells, the “Ex vivo efficacy, LD50 Patient CLL B-cells” value stood at 0.08 µM. Further, in the data set on Normal B-cells, the “Ex vivo efficacy, LD50 Normal B-cells” value is 40.5 µM. Further, the “Ex vivo efficacy, LD50 Normal T-cells” value in the data set on Normal T-cells is 506.3 µM. Moreover, the bioavailability in [3] turned out to be 56%. Further, the “samples tested that showed cytotoxic synergy” value in [5] is given as 8/10. The “expression of MCL1, BCL2, XIAP and CCND1 and D2” value in [6] (combination 0.1 μM CDKI-73 and 10 μM fludarabine, 4 h) is listed as “marked repression”. Further, the “expression of MCL1, BCL2, XIAP and CCND1 and CCND2” value in data set [6] (single agent, 0.1 μM CDKI-73, 4 h) is recorded as “down regulated”. The “MCL1 transcription (QRT-PCR)” value in [7] (CDKI-73 in combination with fludarabine (100:1)) and in [7] (single agent) was “significantly inhibited” each time.
